From patent US6818663B2, “Diaminothiazoles” (Hoffmann-La Roches, priority 2002, dated 2004) come the findings set out here.

Molecules are shown by their SMILES.

For one data set, the target named is human cyclin D1-CDK4 (Homo sapiens, UniProt P11802). The data set can be described thus: FlashPlate kinase assay, cyclin D1-CDK4, Rb substrate. It counts as biochemical. As to conditions: recombinant cyclin D1-CDK4, Rb phosphorylation, 1 μM ATP. In a few lines:
(§1)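 Recombinant human cyclin–CDK complexes, co-expressed in insect cells, phosphorylated His-tagged Rb (aa 386-928) coated on FlashPlates at 10 μg/ml. Reaction used 1 μM ATP plus 4 nM ^33P-ATP and 20 mM MgCl2 for 30 min at room temperature. % inhibition came from scintillation counts against no-enzyme and no-compound wells, and IC50 was the concentration halving radiolabel incorporation.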

Data set [1] relates to HCT116, a colorectal carcinoma cell line. The data set can be described thus: Tetrazolium dye proliferation assay (MTT assay). It counts as cell-based. Conditions: Homo sapiens, HCT-116, HCT116 cells, inhibition of cell proliferation. In a few lines:
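HCT116 cells in McCoy's 5A + 10% FCS, plated overnight, then dosed in duplicate with serial dilutions (final DMSO 0.3%) and incubated to growth-curve time points. MTT at 1 mg/ml for 2.5-3 h, formazan in ethanol, A570/650. IC50 by linear regression of log concentration vs % inhibition relative to blank and DMSO controls.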

The target in the next data set is human cyclin B-CDK1 (Homo sapiens, UniProt P06493). The data set can be described thus: FlashPlate kinase assay, cyclin B-CDK1, Rb substrate. The class given is biochemical. Conditions: recombinant cyclin B-CDK1, Rb phosphorylation, 1 μM ATP. In a few lines: as §1
Chain of human cyclin B-CDK1 (P06493 whole entry): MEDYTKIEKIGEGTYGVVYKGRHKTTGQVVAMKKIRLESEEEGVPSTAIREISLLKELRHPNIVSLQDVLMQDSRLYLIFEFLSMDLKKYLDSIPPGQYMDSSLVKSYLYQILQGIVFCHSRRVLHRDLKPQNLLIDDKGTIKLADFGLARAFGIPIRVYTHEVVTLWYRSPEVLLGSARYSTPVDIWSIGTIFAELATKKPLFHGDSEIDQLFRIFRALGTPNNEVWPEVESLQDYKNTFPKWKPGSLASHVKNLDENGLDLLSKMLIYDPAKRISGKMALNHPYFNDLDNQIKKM
Chain of human cyclin B-CDK1 (P14635 whole entry partner): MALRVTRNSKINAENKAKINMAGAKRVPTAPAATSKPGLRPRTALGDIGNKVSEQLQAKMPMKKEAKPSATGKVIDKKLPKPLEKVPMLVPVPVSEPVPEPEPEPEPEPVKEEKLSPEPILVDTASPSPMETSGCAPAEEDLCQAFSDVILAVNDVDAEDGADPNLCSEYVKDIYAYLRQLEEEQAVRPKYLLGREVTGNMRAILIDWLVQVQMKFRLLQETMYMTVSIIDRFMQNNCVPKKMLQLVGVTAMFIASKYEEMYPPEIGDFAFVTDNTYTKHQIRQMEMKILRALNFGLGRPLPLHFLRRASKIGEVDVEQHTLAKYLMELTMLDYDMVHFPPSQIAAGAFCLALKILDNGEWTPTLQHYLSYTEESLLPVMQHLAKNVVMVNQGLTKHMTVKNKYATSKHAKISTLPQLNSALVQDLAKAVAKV
Another data set deals with human cyclin E-CDK2 (Homo sapiens, UniProt P24941). The data set can be described thus: FlashPlate kinase assay, cyclin E-CDK2, Rb substrate. It counts as biochemical. Conditions: recombinant cyclin E-CDK2, Rb phosphorylation, 1 μM ATP. In a few lines: as §1

Chain of human cyclin D1-CDK4 (P11802 whole entry, the tested form may be a part): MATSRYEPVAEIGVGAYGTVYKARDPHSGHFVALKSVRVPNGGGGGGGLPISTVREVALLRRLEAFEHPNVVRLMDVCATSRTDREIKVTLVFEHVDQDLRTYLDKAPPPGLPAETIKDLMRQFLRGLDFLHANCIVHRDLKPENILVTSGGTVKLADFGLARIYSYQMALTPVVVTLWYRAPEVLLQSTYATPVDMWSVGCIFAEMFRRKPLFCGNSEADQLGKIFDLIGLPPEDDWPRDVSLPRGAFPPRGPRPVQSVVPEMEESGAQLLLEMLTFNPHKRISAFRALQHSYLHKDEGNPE
Chain of human cyclin D1-CDK4 (P24385 whole entry partner, the tested form may be a part): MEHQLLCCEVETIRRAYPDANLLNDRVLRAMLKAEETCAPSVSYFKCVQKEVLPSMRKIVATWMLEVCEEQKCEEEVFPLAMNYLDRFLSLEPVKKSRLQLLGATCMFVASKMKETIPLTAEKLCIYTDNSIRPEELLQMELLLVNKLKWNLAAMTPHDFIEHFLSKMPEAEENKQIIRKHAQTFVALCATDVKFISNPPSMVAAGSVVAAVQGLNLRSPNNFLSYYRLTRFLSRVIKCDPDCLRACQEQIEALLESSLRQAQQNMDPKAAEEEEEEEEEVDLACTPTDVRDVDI

On to `CCc1cccc(C(=O)c2sc(Nc3ccc(OC[C@@H]4CCCN4C)cc3)nc2N)c1` [Example 112, (S)-[4-Amino-2-[4-(1-methyl-pyrrolidin-2-ylmethoxy)-phenylamino]-thiazol-5-yl]-(3-ethyl-phenyl)-methanone], for which the half-maximal inhibitory concentration (IC50) came out at 42 nM at human cyclin D1-CDK4, 419 nM in data set [1], 1890 nM at human cyclin B-CDK1 and 2320 nM on human cyclin E-CDK2.

For `CN1CCC[C@H]1COc1ccc(Nc2nc(N)c(C(=O)c3cccc(C4CC4)c3)s2)cc1` [Example 113, (S)-[4-Amino-2-[4-(1-methyl-pyrrolidin-2-ylmethoxy)-phenylamino]-thiazol-5-yl]-(3-cyclopropyl-phenyl)-methanone], the IC50 on human cyclin D1-CDK4 was 62 nM; in data set [1], 1070 nM; at human cyclin B-CDK1, 3900 nM; at human cyclin E-CDK2, 3340 nM.

`Cc1ccc(C(=O)c2sc(Nc3ccc(OC[C@@H]4CCCN4C)cc3)nc2N)cc1F` [Example 114, (S)-[4-Amino-2-[4-(1-methyl-pyrrolidin-2-ylmethoxy)-phenylamino]-thiazol-5-yl]-(3-fluoro-4-methyl-phenyl)-methanone]: the IC50 on human cyclin D1-CDK4 was determined as 63 nM; in data set [1] it was 2070 nM; at human cyclin B-CDK1, 850 nM; at human cyclin E-CDK2 it was 5030 nM.

Consider `CCCc1cc(C(=O)c2sc(Nc3ccc(OC[C@@H]4CCCN4C)cc3)nc2N)ccc1O` [Example 115, (S)-[4-Amino-2-[4-(1-methyl-pyrrolidin-2-ylmethoxy)-phenylamino]-thiazol-5-yl]-(4-hydroxy-3-propyl-phenyl)-methanone Acetate], for which the IC50 at human cyclin D1-CDK4 was 27 nM; in data set [1] it was 169 nM; on human cyclin B-CDK1, 357 nM; at human cyclin E-CDK2 it was 267 nM.

For the molecule `Nc1nc(Nc2ccc(OCCN3CCCC3)cc2)sc1C(=O)c1cccc(F)c1` [Example 118, [4-Amino-2-[4-(2-pyrrolidin-1-yl-ethoxy)-phenylamino]-thiazol-5-yl]-(3-fluoro-phenyl)-methanone; Compound With Acetic Acid], the IC50 came out at 62 nM on human cyclin D1-CDK4, 517 nM in data set [1], 248 nM at human cyclin B-CDK1 and 889 nM on human cyclin E-CDK2.

As to `Nc1nc(Nc2ccc(OCCN3CCCC3)cc2)sc1C(=O)c1ccc(O)c(F)c1` [Example 120, [4-Amino-2-[4-(2-pyrrolidin-1-ylethoxy)-phenylamino]-thiazol-5-yl]-(3-fluoro-4-hydroxy-phenyl)-methanone; Compound With Acetic Acid], the half-inhibitory concentration (IC50) came to 38 nM at human cyclin D1-CDK4, 1630 nM in data set [1], 422 nM on human cyclin B-CDK1 and 781 nM at human cyclin E-CDK2.

For `COc1cccc(C(=O)c2sc(Nc3ccc(OC[C@@H](C)N4CCCC4)cc3)nc2N)c1` [Example 121, [R]-[4-Amino-2-[4-(2-pyrrolidin-1-yl-propoxy)-phenylamino]-thiazol-5-yl]-(3-methoxy-phenyl)-methanone; Compound With Acetic Acid], the IC50 was 60 nM at human cyclin D1-CDK4, 1060 nM in data set [1], 1790 nM at human cyclin B-CDK1 and 4910 nM on human cyclin E-CDK2.

For `CCN(CC)CCOc1ccc(Nc2nc(N)c(C(=O)c3ccc(O)c(F)c3)s2)cc1` [Example 123, [4-Amino-2-[4-(2-diethylamino-ethoxy)-phenylamino]-thiazol-5-yl]-(3-fluoro-4-hydroxy-phenyl)-methanone], the IC50 on human cyclin D1-CDK4 was 36 nM; in data set [1] it was 1870 nM; at human cyclin B-CDK1, 422 nM; on human cyclin E-CDK2 it was 1660 nM.

In the case of `CCN(CC)CCOc1ccc(Nc2nc(N)c(C(=O)c3ccc(OC)c(F)c3)s2)cc1` [Example 125, [4-Amino-2-[4-(2-diethylamino-ethoxy)-phenylamino]-thiazol-5-yl]-(3-fluoro-4-methoxy-phenyl)-methanone], the IC50 on human cyclin D1-CDK4 was 32 nM; in data set [1], 2220 nM; on human cyclin B-CDK1 it was 2180 nM; at human cyclin E-CDK2, 6790 nM.

In the case of `CCN(CC)CCOc1ccc(Nc2nc(N)c(C(=O)c3cccc(SC)c3)s2)cc1` [Example 126, [4-Amino-2-[4-(2-diethylamino-ethoxy)-phenylamino]-thiazol-5-yl]-(3-methylsulfanyl-phenyl)-methanone], the concentration for half-maximal inhibition (IC50) at human cyclin D1-CDK4 is 47 nM; in data set [1], 3970 nM; on human cyclin B-CDK1, 1650 nM; at human cyclin E-CDK2, 6070 nM.

Regarding `Nc1nc(Nc2ccc(OCCN3CCCC3)cc2)sc1C(=O)c1cccc(C(F)(F)F)c1` [Example 128, [4-Amino-2-[4-(2-pyrrolidin-1-yl-ethoxy)-phenylamino]-thiazol-5-yl]-(3-trifluoromethyl-phenyl)-methanone], the IC50 turned out to be 65 nM at human cyclin D1-CDK4, 4590 nM in data set [1], 2050 nM at human cyclin B-CDK1 and 1310 nM on human cyclin E-CDK2.

Regarding `CCNCCOc1ccc(Nc2nc(N)c(C(=O)c3cccc(OC)c3)s2)cc1` [Example 130, [4-Amino-2-[4-(2-ethylamino-ethoxy)-phenylamino]-thiazol-5-yl]-(3-methoxy-phenyl)-methanone], the IC50 at human cyclin D1-CDK4 is 48 nM; in data set [1], 1390 nM; on human cyclin B-CDK1 it was 784 nM; at human cyclin E-CDK2, 3330 nM.

As for `CCNCCOc1ccc(Nc2nc(N)c(C(=O)c3cccc(F)c3)s2)cc1` [Example 131, [4-Amino-2-[4-(2-ethylamino-ethoxy)-phenylamino]-thiazol-5-yl]-(3-fluoro-phenyl)-methanone], the IC50 on human cyclin D1-CDK4 was 520 nM; in data set [1], 693 nM; on human cyclin B-CDK1, 298 nM; at human cyclin E-CDK2, 892 nM.

As for `CCNCCOc1ccc(Nc2nc(N)c(C(=O)c3ccc4c(c3)OCO4)s2)cc1` [Example 133, [4-Amino-2-[4-(2-ethylamino-ethoxy)-phenylamino]-thiazol-5-yl]-benzo[1,3]dioxol-5-yl-methanone], the IC50 at human cyclin D1-CDK4 was found to be 29 nM; in data set [1] it was 3000 nM; on human cyclin B-CDK1 it was 338 nM; on human cyclin E-CDK2, 3170 nM.

As to `CC(C)NCCOc1ccc(Nc2nc(N)c(C(=O)c3ccc4c(c3)OCO4)s2)cc1` [Example 137, [4-Amino-2-[4-(2-isopropylamino-ethoxy)-phenylamino]-thiazol-5-yl]-benzo[1,3]dioxol-5-yl-methanone], the IC50 on human cyclin D1-CDK4 is 19 nM; in data set [1], 1730 nM; on human cyclin B-CDK1 it was 457 nM; at human cyclin E-CDK2, 2750 nM.

In the case of `COc1cccc(C(=O)c2sc(Nc3ccc(OCCN(C)C)cc3)nc2N)c1` [Example 144, [4-Amino-2-[4-(2-dimethylaminoethoxy)-phenylamino]-thiazol-5-yl]-(3-methoxy-phenyl)-methanone], the melting point was 130 °C (dec.). Moreover, the IC50 on human cyclin D1-CDK4 amounted to 87 nM. At human cyclin B-CDK1, the IC50 amounted to 2490 nM. On human cyclin E-CDK2, the IC50 was 4540 nM.

For `CCN(CC)CCOc1ccc(Nc2nc(N)c(C(=O)c3cccc(OC)c3)s2)cc1` [Example 145, [4-Amino-2-[4-(2-diethylaminoethoxy)-phenylamino]-thiazol-5-yl]-(3-methoxy-phenyl)-methanone], the melting point was 118 to 123 °C. Also, at human cyclin D1-CDK4, the IC50 was found to be 41 nM. In addition, the half-maximal inhibitory concentration (IC50) at human cyclin B-CDK1 came to 219 nM. The IC50 at human cyclin E-CDK2 is 900 nM.

Turning to `COc1cccc(C(=O)c2sc(Nc3ccc(OCCn4ccnc4)cc3)nc2N)c1` [Example 146, [4-Amino-2-[4-(2-imidazol-1-yl-ethoxy)-phenylamino]-thiazol-5-yl]-(3-methoxy-phenyl)-methanone], the melting point lay within 185 to 190 °C. At human cyclin D1-CDK4, the IC50 came out at 67 nM. Further, the IC50 in data set [1] came out at 4190 nM. The IC50 on human cyclin B-CDK1 worked out at 600 nM. Also, on human cyclin E-CDK2, the IC50 turned out to be 814 nM.
